Experimental data as given in the supplement of paper PMC10132981, “Formate overflow drives toxic folate trapping in MTHFD1 inhibited cancer cells” (Nature Metabolism, 2023).

Key:
Assay in all cases: EC50 for viability (resazurin, 96 h)
[1] = test system: SW620 WT
[2] = test system: PA-TU-8988T; conditions: DMEM+GlutaMAX (5% dFBS, 1% P/S)
[3] = test system: HCT116; conditions: RPMI+GlutaMAX (10% FBS, 1% P/S)
[4] = test system: SW620 MTHFD2 -/-; conditions: RPMI+GlutaMAX (5% dFBS, 1% P/S)
[5] = test system: SW620 MTHFD2-/-; conditions: RPMI+GlutaMAX (5% dFBS, 1% P/S)
[6] = test system: SW620

Nc1nc(N)c(NC(=O)Nc2cnc(C(=O)N[C@@H](CCc3nnn[nH]3)C(=O)O)c(F)c2)c(=O)[nH]1
Conditions	EC50 for viability [nM]
[1], RPMI+GlutaMAX (5% dFBS, 1% P/S), metabolite supplement: Adenine	15.3
[1], RPMI+GlutaMAX (5% dFBS, 1% P/S), metabolite supplement: Adenosine	16.6
[1], RPMI+GlutaMAX (5% dFBS, 1% P/S), metabolite supplement: Guanosine	19.9
[1], RPMI+GlutaMAX (5% dFBS, 1% P/S), metabolite supplement: Hypoxanthine	14.1
[1], RPMI+GlutaMAX (5% dFBS, 1% P/S), metabolite supplement: Hypoxanthine + AICAr 10 µM	12.3
[1], RPMI+GlutaMAX (5% dFBS, 1% P/S), metabolite supplement: Hypoxanthine + AICAr 30 µM	16.4
[1], RPMI+GlutaMAX (5% dFBS, 1% P/S), metabolite supplement: Hypoxanthine + AICAr 50 µM	20
[1], RPMI+GlutaMAX (5% dFBS, 1% P/S), metabolite supplement: Hypoxanthine + AICAr 100 µM	> 10000
[1], RPMI+GlutaMAX (5% dFBS, 1% P/S, 10 uM Hypoxanthine), metabolite supplement: Thymidine 0.1 uM	16.5
[1], RPMI+GlutaMAX (5% dFBS, 1% P/S, 10 uM Hypoxanthine), metabolite supplement: Thymidine 0.5 uM	24.3
[1], RPMI+GlutaMAX (5% dFBS, 1% P/S, 10 uM Hypoxanthine), metabolite supplement: Thymidine 1uM	13.7
[1], RPMI+GlutaMAX (5% dFBS, 1% P/S, 10 uM Hypoxanthine), metabolite supplement: Thymidine 5uM	> 10000
[1], RPMI+GlutaMAX (5% dFBS, 1% P/S, 10 uM Hypoxanthine), metabolite supplement: Thymidine 10 uM	> 10000
[1], RPMI+GlutaMAX (5% dFBS, 1% P/S, 10 uM Hypoxanthine), metabolite supplement: Thymidine 25 uM	> 10000
[1], RPMI+GlutaMAX (5% dFBS, 1% P/S, 10 uM Hypoxanthine), metabolite supplement: Thymidine 50 uM	> 10000
[1], RPMI+GlutaMAX (5% dFBS, 1% P/S, 10 uM Hypoxanthine), metabolite supplement: Vehicle	13.6
[1], RPMI+GlutaMAX (5% dFBS, 1% P/S, 50 uM Hypoxanthine), metabolite supplement: Thymidine 0.1 uM	17.5
[1], RPMI+GlutaMAX (5% dFBS, 1% P/S, 50 uM Hypoxanthine), metabolite supplement: Thymidine 0.5 uM	14.5
[1], RPMI+GlutaMAX (5% dFBS, 1% P/S, 50 uM Hypoxanthine), metabolite supplement: Thymidine 1uM	12.5
[1], RPMI+GlutaMAX (5% dFBS, 1% P/S, 50 uM Hypoxanthine), metabolite supplement: Thymidine 5uM	> 10000
[1], RPMI+GlutaMAX (5% dFBS, 1% P/S, 50 uM Hypoxanthine), metabolite supplement: Thymidine 10 uM	> 10000
[1], RPMI+GlutaMAX (5% dFBS, 1% P/S, 50 uM Hypoxanthine), metabolite supplement: Thymidine 25 uM	> 10000
[1], RPMI+GlutaMAX (5% dFBS, 1% P/S, 50 uM Hypoxanthine), metabolite supplement: Thymidine 50 uM	> 10000
[1], RPMI+GlutaMAX (5% dFBS, 1% P/S, 50 uM Hypoxanthine), metabolite supplement: Vehicle	13
[6], HPLM (5% dFBS, 1% P/S), metabolite supplement: Vehicle	12.7
[6], RPMI+GlutaMAX (5% FBS, 1% P/S), metabolite supplement: Vehicle	13.4
[6], RPMI+GlutaMAX (5% dFBS, 1% P/S), metabolite supplement: 50 µM Hypoxanthine	14
[6], RPMI+GlutaMAX (5% dFBS, 1% P/S), metabolite supplement: Vehicle	14.7
[6], RPMI+GlutaMAX (10% FBS, 1% P/S), metabolite supplement: Folic acid	597
[6], RPMI+GlutaMAX (10% FBS, 1% P/S), metabolite supplement: Folinic acid	687
[6], RPMI+GlutaMAX (10% FBS, 1% P/S), metabolite supplement: Hypoxanthine	10.4
[6], RPMI+GlutaMAX (10% FBS, 1% P/S), metabolite supplement: Sodium Formate	12.7
[6], RPMI+GlutaMAX (10% FBS, 1% P/S), metabolite supplement: Thymidine	> 10000
[6], RPMI+GlutaMAX (10% FBS, 1% P/S), metabolite supplement: Thymidine + Folic acid	1920
[6], RPMI+GlutaMAX (10% FBS, 1% P/S), metabolite supplement: Vehicle	9.47

Conditions	EC50 for viability [nM]
[2], metabolite supplement: Thymidine	1.6
[2], metabolite supplement: Vehicle	1.31
[3], metabolite supplement: Hypoxanthine	6.57
[3], metabolite supplement: Vehicle	13.1
[4], metabolite supplement: Hypoxanthine	1.53
[4], metabolite supplement: Sodium Formate	12.5
[4], metabolite supplement: Thymidine	0.604
[4], metabolite supplement: Thymidine + Sodium Formate	129
[4], metabolite supplement: Vehicle	0.506
[5], metabolite supplement: Hypoxanthine + Formate	15.8
[5], metabolite supplement: Vehicle	0.501
